# From US12150938B2, “Biomarker of polycystic kidney disease and uses thereof” (Genzyme Corporation, priority 2015, dated 2024)
# What was measured:
# [1] = tested on: jck mice; assay: Treatment of jck mice (PKD model): kidney volume / cyst volume; format: in vivo, mouse
# Description: C57BL/6J jck/+ mice were maintained for mating. Cystic jck/jck mice were genotyped as previously described (Smith et al., J. Am. Soc. Nephrol. 17:2821-2831, 2006). […] conditional knockout mice were generated as described previously (Natoli et al., Nature Med. 16:788-792, 2010). The […] gene was deleted by inducing the Cre recombinase activity with tamoxifen delivered in sunflower oil (Sigma-Aldrich, St. Louis, MO), on postnatal day 1 with 100 mg/kg.
# A jck mouse model of PKD (Smith et al., J. Am. Soc. Nephrol. 17:2821-2831, 2006) was used to assess the expression of AMBP. Jck mice are characterized by development of moderately progressive renal cystic disease. Kidneys from the jck mouse model are enlarged by day 26 after birth and have multiple cysts. […] Renal function in jck mice, as measured by serum creatinine and blood urea nitrogen, progressively elevates over time. […] Cysts originating from the proximal tubules are not detected in jck mice (Smith et al., J. Am. Soc. Nephrol. 17:2821-2831, 2006).
# Roscovitine was administered ad libitum to jck mice from 26 to 64 days of age by mixing in powdered 5053 diet at 0.2%. […] Urine was collected for 24 hours consecutively (at day 26, 33, 41, 48, and 64 after birth) over a 5-week period from animals with a range of disease severity measured by kidney to body weight ratio (K/BW) and cystic percentage (C %). […]
# [2] = tested on: AMBP protein; assay: Immunoblot of AMBP protein levels in urine and kidney samples of treated jck mice; format: in vivo, mouse
# Description: Kidney samples were homogenized in RIPA buffer (Boston BioProducts) including 1 mM DTT, 5 mM EDTA, 2 mM NaF, 1 mM Na3VO4 (all supplied by Sigma-Aldrich), Pefabloc SC and Complete Proteinase Inhibitor Cocktail (both from Roche Applied Science). Protein concentrations were determined by BCA protein assay (Pierce). Urine samples were briefly centrifuged at 3000 RPM for 10 minutes at 4° C. (Beckman Coulter Allegra 6A) to remove cellular debris. An equal volume of urine was diluted in 5× Laemmli Buffer (15% SDS, 0.575 M sucrose, 0.325 M Tris, pH 6.8, 5% beta-mercaptoethanol and 0.002% bromophenol blue). Equal amounts of protein and urine were loaded onto 4-14% NuPage Bis-Tris gels following the manufacturer's protocols (Invitrogen). Membranes were blocked with 5% nonfat milk in Tris-buffered saline (TBS) including 0.1% Tween-20 and incubated with primary antibodies overnight at 4° C. Primary antibodies were detected with horseradish peroxidase-labeled secondary antibodies (Promega). Immunoreactive proteins were detected by enhanced chemiluminescence (GE Healthcare). Primary antibodies to the following proteins were used: α-1-microglobulin and β-actin (Abcam), and GAPDH (US Biological).
# Roscovitine was administered ad libitum to jck mice from 26 to 64 days of age by mixing in powdered 5053 diet at 0.2%. The GCSi (Genz-123346) was administered ad libitum to jck mice from day 26 to day 64 after birth by mixing in powdered 5053 diet at 0.225% (Natoli et al., Nature Med. 16:788-792, 2010). Chronic and pulse treatment with S-CR8 was performed by daily intraperitoneal injection with 24 mg/kg starting from day 26 after birth. Urine was collected for 24 hours consecutively (at day 26, 33, 41, 48, and 64 after birth) over a 5-week period from animals with a range of disease severity measured by kidney to body weight ratio (K/BW) and cystic percentage (C %).
# A second set of experiments was performed in jck mice to determine a second CDK inhibitor, S-CR8, would decrease both AMBP levels and kidney volume. In these experiments, the jck animals were administered one of the following treatment schedules starting at day 26 after birth: (A) daily intraperitoneal injection with 24 mg/kg S-CR8 for five weeks; (B) daily intraperitoneal injection with 24 mg/kg S-CR8 for three weeks, and two weeks with no treatment; and (D) daily intraperitoneal injection with 24 mg/kg S-CR8 for one week and four weeks with no treatment (FIG. 18). As a control, jck animals were administered a vehicle between day 26 to day 64 after birth.
# [3] = oral 0.2% in feed day 26 to day 64 after birth, day 64, vs vehicle (FIG. 17)
# [4] = 0.225% in diet day 26 to day 64 after birth, day 64, vs vehicle (FIG. 22)
smiles,measurement,setting,value
CC[C@H](CO)Nc1nc(NCc2ccccc2)c2ncn(C(C)C)c2n1 [roscovitine],"kidney volume (kidney to body weight, FIG. 16)","[1]; oral 0.2% in feed day 26 to day 64 after birth, measured at day 64, vs vehicle",decrease
same,AMBP protein levels in kidney samples,[2]; [3],decrease
same,AMBP protein levels in urine,[2]; [3],decrease
CCCCCCCCC(=O)N[C@H](CN1CCCC1)[C@H](O)c1ccc2c(c1)OCCO2 [Genz-123346],AMBP levels in kidney tissue samples,[2]; [4],decrease
same,AMBP levels in urine samples,[2]; [4],decrease
CC[C@@H](CO)Nc1nc(NCc2ccc(-c3ccccn3)cc2)c2ncn(C(C)C)c2n1 [S-CR8],"cyst volume (cystic volume as percentage of body weight, FIG. 19)","[1]; daily intraperitoneal 24 mg/kg from day 26, all tested schedules (A 5 weeks, B 3 weeks, D 1 week), vs vehicle",decrease
same,urine AMBP protein levels,"[2]; daily intraperitoneal 24 mg/kg from day 26, all tested schedules (A, B, D), urine at day 64, vs vehicle (FIGS. 20 and 21)",decrease
